The values below come from US5798356A, “Angiostatic compounds” (Alcon Laboratories, Inc., priority 1996, dated 1998).

One assay relates to rabbit cornea. The experiment in a line: rabbit model of lipopolysaccharide (LPS) induced corneal neovascularization. Type of assay: in vivo. The conditions noted are these: Elvax-40 pellet in cornea, Elvax control = 100. The procedure:
Representative compounds of the present invention were assayed for their efficacy in inhibiting angiogenesis in vivo, in a rabbit model of lipopolysaccharide (LPS) induced corneal neovascularization. Briefly, the test compound and LPS (a stimulus for initiating neovascularization) are incorporated into separate Elvax-40 pellets as described in D. […] The area covered by new vessel formation in response to LPS is measured and suppression of neovascularization by test compounds is estimated at the end of the test period. The data is expressed as a relative area units in relation to the Elvax control (100).

The test system of assay [1] is human umbilical vein endothelial cells (HUVEC). Kind of assay: inhibition of endothelial cell proliferation (HUVEC). Type of assay: cell-based. Conditions: for inhibition at 1 µM / inhibition at 5 µM / inhibition at 10 µM / inhibition at 25 µM: Homo sapiens; for inhibition at 25 µM: concentration 25 μM. The procedure: Representative compounds of the present invention were assayed for their efficacy in inhibiting endothelial cell proliferation. […] At mid-log phase the cells were detached from the plate and counted using a coulter counter. Viability tests were conducted using trypan blue. The data is expressed as percent inhibition based on the control number of endothelial cells counted.

Assay [2] concerns chorioallantoic membrane (CAM). Kind of assay: inhibition of angiogenesis in a chorioallantoic membrane (CAM) model. Type of assay: in vivo, chicken embryo. The conditions noted are these: 10 μg in liposome/agarose bead on CAM, 2 days; percent responding embryos per nanomole relative to tetrahydrocortisol. The protocol: Representative compounds of the present invention were assayed for their efficacy in inhibiting angiogenesis in a chorioallantoic membrane (CAM) model (See, McNatt, et al., Angiostatic Activity and Metabolism of Cortisol in The Chorioallantoic Membrane (CAM) of the Chick Embryo, Journal of Steriod Biochemistry and Molecular Biology, volume 42, No. 7, pages 687-693 (1992)). Briefly, 10 μg of the test compound or reference compound (tetrahydrocortisol) were suspended in a liposome/agarose bead and placed on the CAM of a 5-6 day chicken embryo. Following 2 days of incubation, the CAMs were scored for relative angiostatic activity by comparing percent responding embryos per nanomole test compound to percent responding embryos for the reference compound.

The subject of assay [3] is human lung microvascular endothelial cells. The experiment in a line: inhibition of 3H-thymidine uptake in DNA as a measure of DNA synthesis. Type of assay: cell-based. The conditions noted are these: Endothelial cell, 18 hours exposure, then 3H-thymidine 6 hours; for inhibition at 5 µM: concentration 5.0 μM; for inhibition at 10 µM: concentration 10 μM; for inhibition at 25 µM: concentration 25 μM. The protocol: Representative compounds of the present invention were assayed for their efficacy in inhibiting ^3 H-thymidine uptake in DNA as a measure of DNA synthesis (R.I. Freshney, Culture of Animal Cells, 3rd Edition, John Wiley and Sons, N.Y., N.Y., pages 277-278 (1994)). Briefly, human lung microvascular endothelial cells in mid-log phase were exposed to either a representative compound of the present invention or the vehicle (1.0% DMSO) for 18 hours. Cells were then incubated with ^3 H-thymidine for another 6 hours. DNA synthesis was stopped by the addition of cold 5% TCA solution and the relative synthesis assessed by measuring ^3 H-thymidine incorporated into the acid-insoluble product. The data is expressed as percent inhibition of uptake based on tritium counts in the vehicle control reactions.

For `COc1ccc2cc(C(C)C(=O)NCC3(C)CCc4c(C)c(O)c(C)c(C)c4O3)ccc2c1` (stereo not shown) [C], the “Relative Area of Neovascularization” value is listed as 102 relative area units in the assay on rabbit cornea (day 4), 57 relative area units with rabbit cornea (day 9), 41 relative area units in the assay on rabbit cornea (day 15) and 60 relative area units in the assay on rabbit cornea (day 22).

As usually defined, the inhibition is the drop in the measured response relative to a control, in per cent. A low value points to a response near the control. In turn, `COc1ccc2cc(C(C)C(=O)OCCC3(C)CCc4c(C)c(O)c(C)c(C)c4O3)ccc2c1` (stereo not shown) [Compound A] registered an inhibition at 1 µM in assay [1] (concentration 1.0 μM) of 6.7%. Besides, the inhibition at 5 µM in assay [1] (concentration 5.0 μM) turned out to be 25.5%; in assay [3], 16.3%. Besides, the inhibition at 10 µM in assay [1] (concentration 10 μM) is 43.4%; in assay [3], 25.7%. Further, the inhibition at 25 µM was determined as 55.2% in assay [1] and 96.5% in assay [3]. The “Relative Area of Neovascularization” value in the assay with rabbit cornea (day 4) is 66 relative area units; in the assay with rabbit cornea (day 9) it was 54 relative area units; in the assay with rabbit cornea (day 15), 48 relative area units; with rabbit cornea (day 22) it was 103 relative area units. Further, the “RAF (Relative Angiostatic Factor)” value in assay [2] turned out to be 0.10. Moreover, in assay [3] (concentration 15 μM), at 15 µM the inhibition was 57.4%. Also, testing at 20 µM in assay [3] (concentration 20 μM) gave an inhibition of 82.9%.

`COc1ccc2cc(C(C)C(=O)OCC3(C)Cc4c(C)c(O)c(C)c(C)c4O3)ccc2c1` (stereo not shown) [Compound B]: 1 µM produced 5% inhibition in assay [1] (concentration 1.0 μM). Besides, the inhibition at 5 µM is 13.9% in assay [1] (concentration 5.0 μM) and 36.9% in assay [3]. Moreover, the inhibition at 10 µM is 47.7% in assay [1] (concentration 10 μM) and 63.1% in assay [3]. Besides, the inhibition at 25 µM in assay [1] worked out at 60.5%; in assay [3] it was 97.9%. Besides, the “RAF (Relative Angiostatic Factor)” value in assay [2] is reported as 1.06.

With `Cc1c(C)c2c(c(C)c1O)CC(C)(CCN1CCN(C(c3ccc(F)cc3)c3ccc(F)cc3)CC1)O2` (stereo not shown) [Compound E], the inhibition at 1 µM in assay [1] (concentration 1.0 μM) worked out at 25%. The molecule further yielded an inhibition at 5 µM in assay [1] (concentration 5.0 μM) of 48%. The molecule further registered an inhibition at 10 µM in assay [1] (concentration 10 μM) of 88%. The molecule further registered an inhibition at 25 µM in assay [1] of 91%. Besides, the “Relative Area of Neovascularization” value worked out at 99 relative area units with rabbit cornea (day 4), 76 relative area units in the assay on rabbit cornea (day 9), 88 relative area units in the assay with rabbit cornea (day 15) and 115 relative area units with rabbit cornea (day 22). In addition, the “RAF (Relative Angiostatic Factor)” value in assay [2] turned out to be 1.78.

Turning to `Cc1c(C)c2c(c(C)c1OC(=O)CCC(=O)O)CCC(C)(CCCC(C)CCCC(C)CCCC(C)C)O2` (stereo not shown) [Compound G], in assay [1] (concentration 1.0 μM), the inhibition at 1 µM stood at 43%. In assay [1] (concentration 5.0 μM), this molecule showed an inhibition at 5 µM of 8%. Moreover, in assay [1] (concentration 10 μM), the inhibition at 10 µM was determined as 35.1%. The molecule further came in with an inhibition at 25 µM in assay [1] of 65.5%. Besides, the “RAF (Relative Angiostatic Factor)” value in assay [2] was determined as 1.21.

On to `Cc1c(C)c2c(c(C)c1O)CCC(C)(CCO)O2` (stereo not shown) [F], for which the “Relative Area of Neovascularization” value in the assay with rabbit cornea (day 4) worked out at 92 relative area units; in the assay with rabbit cornea (day 9), 85 relative area units; with rabbit cornea (day 15), 30 relative area units; in the assay with rabbit cornea (day 22), 39 relative area units.

For `C[C@]12CCC(=O)C=C1CC[C@@H]1[C@@H]2[C@@H](O)C[C@@]2(C)[C@H]1CC[C@]2(O)C(=O)COC(=O)CCC(=O)O` [Hydrocortisone hemisuccinate, reference compound], the “Relative Area of Neovascularization” value came out at 0 relative area units with rabbit cornea (day 4), 1.5 relative area units in the assay on rabbit cornea (day 9), 0.6 relative area units in the assay on rabbit cornea (day 15) and 4.9 relative area units in the assay on rabbit cornea (day 22).

Take `C[C@]12CC[C@@H](O)C[C@H]1CC[C@@H]1[C@@H]2[C@@H](O)C[C@@]2(C)[C@H]1CC[C@]2(O)C(=O)CO` [Tetrahydrocortisol, tetrahydrocortisol, reference compound]: in assay [2], the “RAF (Relative Angiostatic Factor)” value came to 1.00.

On to Vitamin E [reference compound], for which the “% Inhibition of Endothelial Cell Proliferation” value in assay [1] (concentration 1.0 μM) was determined as 0%; in assay [1] (concentration 5.0 μM), 0%; in assay [1] (concentration 10 μM), 1%.
